The text below walks through data of patent publication US4375542A, “Kijanimicin antibiotics and derivatives thereof” (Schering Corporation, priority 1980, dated 1983).

For data set [1] the following is noted: room temperature at pH 2-3.
In data set [2] the test system is P-388 leukemia. Nature of the data set: in vivo anti-tumor test, P-388 leukemia in mice (standard National Cancer Institute test). The method, then:
Anti-tumor activity was determined by the standard National Cancer Institute test which was published in Cancer Chemothr. Rep. 3:1-103 1972.
In the test 10^6 cells per mouse of P-388 leukemia (bleomycin sensitive) is administered intraperitoneally on day 1. The test compound is serially diluted (1/10, 1/100, etc.) and each dilution is administered to a mouse from day 1 to day 9. Animals dying on or before day 5 are listed as toxic deaths. Controls are run using bleomycin and olivomycin A. The results are calculated by the formula in which MST=medium survival time in days;
MST ^T /C=MST-T/MST-Control×100.

Data set [3] has as its system Plasmodium berghei. Nature of the data set: antimalarial activity in infected CF1 mice. The data set is classed as in vivo, Plasmodium berghei; CF1 mice. To be noted: therapy commenced one day after infection.
The test system of data set [4] is E. lentum. Nature of the data set: in vitro activity against anaerobic bacteria: E. lentum. The data set is classed as cell-based. The source says: (§1) Kijanimicin is also active against strains of anaerobic bacteria other than P. acnes. For example, when tested in vitro, the antibiotic was active against strains of Peptococcus species, Peptostreptococcus and E. lentum.

The nature of data set [5]: anti-inflammatory activity, art recognized test procedures.
The test system of data set [6] is Peptococcus species. The data set is described as follows: in vitro activity against anaerobic bacteria: Peptococcus species. In kind it is cell-based.
From the text: as §1

Data set [7] in a line: acute toxicity (LD50) and therapeutic index. In kind it is in vivo.
Data set [8] relates to Peptostreptococcus. The data set is described as follows: in vitro activity against anaerobic bacteria: Peptostreptococcus. The data set is classed as cell-based.
From the text: as §1

`COC(=O)N[C@H]1[C@@H](C)O[C@@H](O[C@H]2C/C=C(\C)[C@@H]3C=C[C@@H]4[C@@H](O[C@H]5C[C@@H](O[C@H]6CC(O[C@H]7C[C@H](O)[C@@H](O)[C@H](C)O7)C(O[C@@H]7C[C@@H](O)[C@@H](OC)[C@H](C)O7)[C@H](C)O6)[C@@H](O)[C@H](C)O5)[C@@H](C)C[C@H](C)[C@H]4[C@]3(C)/C(O)=C3\C(=O)O[C@]4(C[C@@H](C)C(CO)=C[C@H]4/C=C/2C)C3=O)C[C@]1(C)[N+](=O)[O-]` (some centres unmarked) [Kijanimicin]: in data set [1], the loss of activity entry was “loses activity rapidly”. The “anti-tumor activity against P-388 leukemia” value in data set [2] is “exhibits anti-tumor activity”. Further, in data set [3], the “antiparasitic activity, Plasmodium berghei” value was “exhibits antiparasitic activity”. Moreover, the “in vitro activity against E. lentum” value in data set [4] is “active”. Further, the anti-inflammatory effect entry in data set [5] was “exhibits an anti-inflammatory effect”. Further, the “in vitro activity against Peptococcus species” value in data set [6] is on record as “active”. In addition, in data set [7] (oral), the “oral LD50” value was “greater than 1000 mg/kg” and the “therapeutic index (LD50 / PD50), oral” value was “about 10”. In data set [7] (subcutaneous), the “subcutaneous LD50” value is recorded as “greater than 1000 mg/kg” and the “therapeutic index (LD50 / PD50), subcutaneous” value is “about 10”. Also, the “in vitro activity against Peptostreptococcus” value in data set [8] is “active”.
